Data reported in patent publication US20260001879A1, “COMPOUNDS AS MYT1 INHIBITORS” (WIGEN BIOMMEDICINE TECHNOLOGY (SHANGHAI) CO., LTD., priority 2022, published 2026).
Values belong to the compound of their own block, whether it stands above or below them.

Assays:
recombinant protein MYT1 = recombinant protein MYT1 (Homo sapiens (Human), UniProt Q99640); assay: In vitro assay for inhibiting MYT1 kinase activity (ADP-GLO); format: biochemical; settings: 10 μM ATP, read-out: Inhibitory activity against recombinant protein MYT1 IC50
Method: Recombinant MYT1 protein and the compounds were pre-incubated at room temperature for 15 min, and 10 μM ATP was then added to start the reaction. The mixture was incubated at room temperature for another 60 min, and the ADP-GLO reagent from Promega was then added. The resulting mixture was incubated in the dark for 40 min, a detection solution was then added, and the mixture was incubated for another 45-60 min. The chemiluminescence was determined using ENVISION. The inhibition rate and IC50 were calculated compared to the DMSO group.

MIA PaCa-2 cells [1] = assay: In vitro anti-proliferative activity against MIA PaCa-2 cells (compound alone); format: cell-based; settings: intracellular ATP content
Method: (§1) MIA PaCa-2 cells were seeded on a 384-well plate at 3000 cells/well. After overnight adherence culture, DMSO or the compounds serially diluted 1:5 from 10 μM were added. The viability was assessed 72 h after dosing by measuring the intracellular ATP content. The inhibition percentage of viable cells by the compounds was calculated by comparing with the DMSO group, and the IC50 value was calculated.

MIA PaCa-2 cells [2] = assay: In vitro anti-proliferative activity in combination with gemcitabine against MIA PaCa-2 cells; format: cell-based
Method: as §1, with “cells/well, and 20 nM gemcitabine was added.” for “cells/well.”, “1000 nM” for “10 μM”

in vitro = settings: dog
Method: (§2) In vitro passive permeability or the ability to serve as a P-glycoprotein (P-gp) transport substrate was tested using MDCK cells (MDCK wild type) or MDCK cells stably transduced with MDRI (MDCK-MDRI), respectively. The permeability experiment was performed in duplicate in a transwell system at a single concentration (5 μM). The cells were incubated for […] Apical-to-basolateral (A to B, A-B) transport and basolateral-to-apical (B to A, B-A) transport of the corresponding compound were determined, and the permeation rate (apparent permeability) (Papp×10^−6 cm/sec) and efflux ratio (Papp (B−A)/Papp (A−B)) of the test compound were calculated.

[3] = test system: P-glycoprotein (P-gp, MDR1); assay: in vitro; settings: dog; for Papp A→B / Papp B→A: 5 μM
Method: as §2

[4] = read-out: Anti-proliferative activity against MIA PaCa-2 cells (20 nM gemcitabine) IC50, with 20 nM gemcitabine, 72 h, intracellular ATP content
[5] = Homo sapiens, MIA PaCa-2, 72 h, read-out: Anti-proliferative activity against MIA PaCa-2 cells (20 nM gemcitabine) IC50, with 20 nM gemcitabine, 72 h, intracellular ATP content

Chain of recombinant protein MYT1 (Q99640 whole entry): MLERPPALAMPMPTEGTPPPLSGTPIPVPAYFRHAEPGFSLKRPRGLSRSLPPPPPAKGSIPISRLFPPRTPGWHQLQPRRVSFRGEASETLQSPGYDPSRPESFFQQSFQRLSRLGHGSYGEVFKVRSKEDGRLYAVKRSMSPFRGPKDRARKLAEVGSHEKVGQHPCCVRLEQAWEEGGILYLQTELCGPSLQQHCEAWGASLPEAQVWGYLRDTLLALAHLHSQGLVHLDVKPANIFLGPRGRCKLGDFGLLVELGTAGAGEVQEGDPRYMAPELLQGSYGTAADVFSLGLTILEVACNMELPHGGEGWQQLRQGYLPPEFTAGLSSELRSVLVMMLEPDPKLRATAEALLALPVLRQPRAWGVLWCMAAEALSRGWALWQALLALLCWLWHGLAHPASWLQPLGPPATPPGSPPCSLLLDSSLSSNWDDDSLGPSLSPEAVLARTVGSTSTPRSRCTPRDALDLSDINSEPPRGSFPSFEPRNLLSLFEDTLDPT

IC50 (recombinant protein MYT1): ≤ 200 nM | IC50 (MIA PaCa-2 cells [1]; 72 h): > 10000 nM | IC50 (MIA PaCa-2 cells [2]; [4]): > 1000 nM
SMILES: Cc1ccc(O)c(C)c1-n1c(N)c(C(N)=O)c2cc(C#N)c(C)nc21 [Compound 11]

IC50 (recombinant protein MYT1): ≤ 200 nM | IC50 (MIA PaCa-2 cells [2]; [5]): > 1000 nM
SMILES: Cc1cc2c(C(N)=O)c(N)n(-c3c(C)cc4cc[nH]c4c3C)c2nc1C [Compound 153]

SMILES: Cc1cc2c(C(N)=O)c(N)n(-c3c(C)c(O)cc(F)c3C)c2nc1C (single isomer, unassigned) [Compound 3]
IC50 (recombinant protein MYT1): ≤ 200 nM | IC50 (MIA PaCa-2 cells [1]; 72 h): > 10000 nM | IC50 (MIA PaCa-2 cells [2]; [4]): 1230 nM

IC50 (recombinant protein MYT1): ≤ 200 nM | IC50 (MIA PaCa-2 cells [2]; [5]): 228 nM
SMILES: Cc1cc2c(C(N)=O)c(N)n(-c3c(C)ccc(O)c3C)c2nc1C#N [Compound 12]

IC50 (MIA PaCa-2 cells [2]; [4]): > 1000 nM
SMILES: Cc1cc2c(C(N)=O)c(N)n(-c3c(C)cc4c(c3C)NCC4)c2nc1C [Compound 151]

IC50 (recombinant protein MYT1): ≤ 200 nM | IC50 (MIA PaCa-2 cells [1]; 72 h): > 10000 nM | IC50 (MIA PaCa-2 cells [2]; [4]): > 1000 nM
SMILES: Cc1cc2c(C(N)=O)c(N)n(-c3c(C)cc(F)c(O)c3C)c2nc1C (single isomer, unassigned) [Compound 7]

IC50 (recombinant protein MYT1): ≤ 200 nM | IC50 (MIA PaCa-2 cells [1]; Homo sapiens, MIA PaCa-2, 72 h): > 10000 nM | IC50 (MIA PaCa-2 cells [2]; [4]): 101 nM
SMILES: Cc1ccc(O)c(C)c1-n1c(N)c(C(N)=O)c2cc3c(nc21)COC3 [Compound 16]

IC50 (recombinant protein MYT1): ≤ 200 nM | IC50 (MIA PaCa-2 cells [1]; Homo sapiens, MIA PaCa-2, 72 h): > 10000 nM | IC50 (MIA PaCa-2 cells [2]; [4]): 101 nM
SMILES: Cc1ccc(O)c(C)c1-n1c(N)c(C(N)=O)c2cc3c(nc21)CCN(C)C3 [Compound 97]

IC50 (MIA PaCa-2 cells [2]; [5]): > 1000 nM
SMILES: Cc1cc2c(C(N)=O)c(N)n(-c3c(C)cc4c(c3C)NCC4)c2nc1C [Compound 150]

efflux ratio at 90 min, 5 μM (in vitro; MDCK): 2.69 | Papp A→B at 90 min, 5 µM (in vitro; MDCK, Papp A-B Mean): 1.79 ×10⁻⁶ cm/s | Papp A→B at 90 min, 5 µM (in vitro; MDCK, Papp A-B Sample - 01): 1.9 ×10⁻⁶ cm/s | Papp A→B at 90 min, 5 µM (in vitro; MDCK, Papp A-B Sample - 02): 1.68 ×10⁻⁶ cm/s | Papp B→A at 90 min, 5 µM (in vitro; MDCK, Papp B-A Mean): 4.8 ×10⁻⁶ cm/s | Papp B→A at 90 min, 5 µM (in vitro; MDCK, Papp B-A Sample - 01): 4.64 ×10⁻⁶ cm/s | Papp B→A at 90 min, 5 µM (in vitro; MDCK, Papp B-A Sample - 02): 4.96 ×10⁻⁶ cm/s | efflux ratio at 90 min, 5 μM ([3]; MDCK-MDR1): 21.4 | Papp A→B at 90 min, 5 µM ([3]; MDCK-MDR1, Papp A-B Mean): 0.96 ×10⁻⁶ cm/s | Papp A→B at 90 min, 5 µM ([3]; MDCK-MDR1, Papp A-B Sample - 01): 0.96 ×10⁻⁶ cm/s | Papp A→B at 90 min, 5 µM ([3]; MDCK-MDR1, Papp A-B Sample - 02): 0.96 ×10⁻⁶ cm/s | Papp B→A at 90 min, 5 µM ([3]; MDCK-MDR1, Papp B-A Mean): 20.6 ×10⁻⁶ cm/s | Papp B→A at 90 min, 5 µM ([3]; MDCK-MDR1, Papp B-A Sample - 01): 17.7 ×10⁻⁶ cm/s | Papp B→A at 90 min, 5 µM ([3]; MDCK-MDR1, Papp B-A Sample - 02): 23.5 ×10⁻⁶ cm/s
SMILES: C[C@H]1O[C@@H](O[C@H]2[C@@H](O)C[C@H](O[C@H]3[C@@H](O)C[C@H](O[C@H]4CC[C@@]5(C)[C@H](CC[C@@H]6[C@@H]5C[C@@H](O)[C@]5(C)[C@@H](C7=CC(=O)OC7)CC[C@]65O)C4)O[C@@H]3C)O[C@@H]2C)C[C@H](O)[C@@H]1O [Digoxin]

SMILES: COCCc1ccc(OCC(O)CNC(C)C)cc1 (stereo not drawn) [Metoprolol, metoprolol]
Papp A→B at 90 min, 5 µM (in vitro; Papp A-B Mean, MDCK-Wild type, A-B, 5 μM, mean): 24.3 ×10⁻⁶ cm/s | Papp A→B at 90 min, 5 µM (in vitro; Papp A-B Sample - 01, MDCK-Wild type, A-B, 5 μM, replicate 01): 26.5 ×10⁻⁶ cm/s | Papp A→B at 90 min, 5 µM (in vitro; Papp A-B Sample - 02, MDCK-Wild type, A-B, 5 μM, replicate 02): 22.2 ×10⁻⁶ cm/s | Papp B→A at 90 min, 5 µM (in vitro; Papp B-A Mean, MDCK-Wild type, B-A, 5 μM, mean): 21.3 ×10⁻⁶ cm/s | Papp B→A at 90 min, 5 µM (in vitro; Papp B-A Sample - 01, MDCK-Wild type, B-A, 5 μM, replicate 01): 18.6 ×10⁻⁶ cm/s | Papp B→A at 90 min, 5 µM (in vitro; Papp B-A Sample - 02, MDCK-Wild type, B-A, 5 μM, replicate 02): 24 ×10⁻⁶ cm/s | Papp A→B ([3]; MDCK-MDR1, Papp A-B Mean, MDCK-MDR1, A-B, mean): 37 ×10⁻⁶ cm/s | Papp A→B ([3]; MDCK-MDR1, Papp A-B Sample - 01, MDCK-MDR1, A-B, replicate 01): 37.6 ×10⁻⁶ cm/s | Papp A→B ([3]; MDCK-MDR1, Papp A-B Sample - 02, MDCK-MDR1, A-B, replicate 02): 36.3 ×10⁻⁶ cm/s | Papp B→A ([3]; MDCK-MDR1, Papp B-A Mean, MDCK-MDR1, B-A, mean): 20.1 ×10⁻⁶ cm/s | Papp B→A ([3]; MDCK-MDR1, Papp B-A Sample - 01, MDCK-MDR1, B-A, replicate 01): 20.1 ×10⁻⁶ cm/s | Papp B→A ([3]; MDCK-MDR1, Papp B-A Sample - 02, MDCK-MDR1, B-A, replicate 02): 20.2 ×10⁻⁶ cm/s

IC50 (recombinant protein MYT1): ≤ 200 nM | IC50 (MIA PaCa-2 cells [1]; Homo sapiens, MIA PaCa-2, 72 h): > 10000 nM | IC50 (MIA PaCa-2 cells [2]; [4]): 165 nM
SMILES: Cc1cc2c(C(N)=O)c(N)n(-c3c(C)cc(F)c(O)c3C)c2nc1C (single isomer, unassigned) [Compound 6]

IC50 (MIA PaCa-2 cells [2]; [5]): > 1000 nM
SMILES: Cc1cc2c(C(N)=O)c(N)n(-c3c(C)c(O)cc4c3CCC4)c2nc1C [Compound 116]

IC50 (recombinant protein MYT1): ≤ 200 nM
SMILES: Cc1ccc(O)c(C)c1-n1c(N)c(C(N)=O)c2cc3cccnc3nc21 [Compound 41]

IC50 (recombinant protein MYT1): ≤ 200 nM | IC50 (MIA PaCa-2 cells [1]; 72 h): > 10000 nM | IC50 (MIA PaCa-2 cells [2]; [4]): > 1000 nM
SMILES: Cc1ccc(O)c(C)c1-n1c(N)c(C(N)=O)c2cc3c(nc21)COC3 [Compound 17]

IC50 (recombinant protein MYT1): ≤ 200 nM
SMILES: Cc1cc2c(C(N)=O)c(N)n(-c3c(C)c(O)cc(F)c3C)c2cc1C#N [Compound 166]

SMILES: Cc1cc2c(C(N)=O)c(N)n(-c3c(C)c(O)cc(F)c3C)c2nc1C (single isomer, unassigned) [Compound 1]
IC50 (recombinant protein MYT1): ≤ 200 nM

IC50 (recombinant protein MYT1): ≤ 200 nM
SMILES: Cc1ccc(O)c(C)c1-n1c(N)c(C(N)=O)c2cc3c(nc21)N(C)CC3 [Compound 90]

IC50 (recombinant protein MYT1): ≤ 200 nM
SMILES: Cc1cc2c(C(N)=O)c(N)n(-c3c(C)c(O)cc(Cl)c3C)c2nc1C [Compound 193]

IC50 (recombinant protein MYT1): ≤ 200 nM
SMILES: Cc1cc2c(C(N)=O)c(N)n(-c3c(C)ccc(=O)n3C)c2nc1C [Compound 178]

IC50 (recombinant protein MYT1): ≤ 200 nM | IC50 (MIA PaCa-2 cells [1]; 72 h): 4240 nM | IC50 (MIA PaCa-2 cells [2]; [4]): 45 nM
SMILES: Cc1ccc(O)c(C)c1-n1c(N)c(C(N)=O)c2cc(C#N)c(C)nc21 [Compound 10]

IC50 (recombinant protein MYT1): ≤ 200 nM
SMILES: Cc1ccc(O)c(C)c1-n1c(N)c(C(N)=O)c2cc3cscc3nc21 [Compound 76]

IC50 (recombinant protein MYT1): ≤ 200 nM
SMILES: Cc1ccc(O)c(C)c1-n1c(N)c(C(N)=O)c2cc3cnncc3nc21 [Compound 56]

IC50 (recombinant protein MYT1): ≤ 200 nM
SMILES: Cc1ccc(O)c(C)c1-n1c(N)c(C(N)=O)c2cc3nccnc3cc21 [Compound 60]

IC50 (recombinant protein MYT1): ≤ 200 nM
SMILES: Cc1c(O)cc(F)c(C)c1-n1c(N)c(C(N)=O)c2cc3ccccc3nc21 [Compound 179]

IC50 (recombinant protein MYT1): ≤ 200 nM | IC50 (MIA PaCa-2 cells [1]; 72 h): > 10000 nM | IC50 (MIA PaCa-2 cells [2]; [4]): > 1000 nM
SMILES: Cc1ccc(O)c(C)c1-n1c(N)c(C(N)=O)c2cc3c(nc21)CCN(C)C3 (atropisomer, axis not shown) [Compound 98]

IC50 (recombinant protein MYT1): ≤ 200 nM
SMILES: Cc1ccc(O)c(C)c1-n1c(N)c(C(N)=O)c2cc3c(nc21)OCCC3 [Compound 35]

IC50 (MIA PaCa-2 cells [2]; [4]): > 1000 nM
SMILES: Cc1cc2c(C(N)=O)c(N)n(-c3c(C)c(O)cc4c3CCC4)c2nc1C (atropisomer, axis not shown) [Compound 117]

IC50 (recombinant protein MYT1): ≤ 200 nM
SMILES: Cc1ccc(O)c(C)c1-n1c(N)c(C(N)=O)c2cc3ncccc3nc21 [Compound 50]

IC50 (recombinant protein MYT1): ≤ 200 nM
SMILES: Cc1ccc(O)c(C(F)(F)F)c1-n1c(N)c(C(N)=O)c2cc(C#N)c(C)nc21 [Compound 181]

IC50 (recombinant protein MYT1): ≤ 200 nM
SMILES: Cc1cc2c(C(N)=O)c(N)n(-c3c(C)c(O)cc(C(F)(F)F)c3C)c2nc1C [Compound 208]
